Laboratory results as given in patent publication US20230374038A1, “MODULATORS OF CYSTIC FIBROSIS TRANSMEMBRANE CONDUCTANCE REGULATOR” (VERTEX PHARMACEUTICALS INCORPORATED, priority 2020, published 2023).

Columns and labels:
CFTR [1] = molecular target: T1, CFTR (Homo sapiens, UniProt P13569); test: Membrane Potential Dye, Enteroid Assay A; type: cell-based; details: for EC50: read-out: Ent. A EC50
Procedure: Base medium (ADF+++) consisted of Advanced DMEM/Ham's F12, 2 mM Glutamax, 10 mM HEPES, 1 µg/mL penicillin/streptomycin.
Intestinal enteroid maintenance medium (IEMM) consisted of ADF+++, 1× B27 supplement, 1× N2 supplement, 1.25 mM N-acetyl cysteine, 10 mM Nicotinamide, 50 ng/mL hEGF, 10 nM Gastrin, 1 pg/mL hR-spondin-1, 100 ng/mL hNoggin, TGF-b type 1 inhibitor A-83-01, 100 μg/mL Primocin, […] P38 MAPK inhibitor SB202190.
Bath 1 Buffer consisted of 1 mM MgCl2, 160 mM NaCl, 4.5 mM KCl, 10 mM HEPES, 10 mM Glucose, 2 mM CaCl2).
Chloride Free Buffer consisted of 1 mM Magnesium Gluconate, 2 mM Calcium Gluconate, 4.5 mM Potassium Gluconate, 160 mM Sodium Gluconate, 10 mM HEPES, 10 mM Glucose.
Bath1 Dye Solution consisted of Bath 1 Buffer, 0.04% Pluronic F127, […] Methyl Oxonol, 30 μM CaCCinh-A01, 30 μM Chicago Sky Blue.
Chloride Free Dye Solution consisted of Chloride Free Buffer, 0.04% Pluronic F127, 20 μM Methyl Oxonol, 30 μM CaCCinh-A01, 30 μM Chicago Sky Blue.
Chloride Free Dye Stimulation Solution consisted of Chloride Free Dye Solution, 10 μM forskolin, 100 μM IBMX, and 300 nM Compound III.
Human intestinal epithelial enteroid cells were obtained from the Hubrecht Institute for Developmental Biology and Stem Cell Research, Utrecht, The Netherlands and expanded in T-Flasks as previously described (Dekkers J F, Wiegerinck C L, de Jonge H R, Bronsveld I, Janssens H M, de Winter-de Groot K M, Brandsma A M, de Jong N W M, Bijvelds M J C, Scholte B J, Nieuwenhuis E E S, van den Brink S, Clevers H, van der Ent C K, Middendorp S and M Beekman J M. A functional CFTR assay using primary cystic fibrosis intestinal organoids. Nat Med. 2013 July; 19(7):939-45.).
Cells were recovered in cell recovery solution, collected by centrifugation at 650 rpm for 5 min at 4° C., resuspended in TryPLE and incubated for 5 min at 37° C. Cells were then collected by centrifugation at 650 rpm for 5 min at 4° C. and resuspended in IEMM containing 10 μM ROCK inhibitor (RI). The cell suspension was passed through a 40 μm cell strainer and resuspended at 1×10^6 cells/mL in IEMM containing 10 μM RI. Cells were seeded at 5000 cells/well into multi-well plates and incubated for overnight at 37° C., 95% humidity and 5% CO2 prior to assay.
Enteroid cells were incubated with test compound in IEMM for 18-24 hours at 37° C., 95% humidity and 5% CO2. […] Briefly, cells were washed 5 times in Bath 1 Buffer. Bath 1 Dye Solution was added, and the cells were incubated for 25 min at room temperature. Following dye incubation, cells were washed 3 times in Chloride Free Dye Solution. Chloride transport was initiated by addition of Chloride Free Dye Stimulation Solution and the fluorescence signal was read for 15 min. […] Chloride transport was then expressed as a percentage of the chloride transport following treatment with 3 μM (S)—N-((6-aminopyridin-2-yl)sulfonyl)-6-(3-fluoro-5-isobutoxyphenyl)-2-(2,2,4-trimethylpyrrolidin-1-yl)nicotinamide, 3 μM (R)-1-(2,2-difluorobenzo[d][1,3]dioxol-5-yl)-N-(1-(2,3-dihydroxypropyl)-6-fluoro-2-(1-hydroxy-2-methylpropan-2-yl)-1H-indol-5-yl)cyclopropanecarboxamide and 300 nM acute N-[2,4-bis(1,1-dimethylethyl)-5-hydroxyphenyl]-1,4-dihydro-4-oxoquinoline-3-carboxamide triple combination control (% Activity).

CFTR [2] = molecular target: T1, CFTR; test: Membrane Potential Dye, Enteroid Assay B; type: cell-based; details: for EC50: read-out: Ent. B EC50
Summary of the method: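 Human intestinal enteroids seeded at 5000 cells/well, treated with compound 18-24 h at 37 °C, then loaded 25 min with methyl oxonol membrane-potential dye plus CaCC blockers. Chloride transport started in chloride-free buffer with 10 μM forskolin, 100 μM IBMX and 300 nM Compound III, read 15 min; expressed as % of triple-combination control.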

T1 sequence (P13569 with tags, fused parts or gaps DEL508-508): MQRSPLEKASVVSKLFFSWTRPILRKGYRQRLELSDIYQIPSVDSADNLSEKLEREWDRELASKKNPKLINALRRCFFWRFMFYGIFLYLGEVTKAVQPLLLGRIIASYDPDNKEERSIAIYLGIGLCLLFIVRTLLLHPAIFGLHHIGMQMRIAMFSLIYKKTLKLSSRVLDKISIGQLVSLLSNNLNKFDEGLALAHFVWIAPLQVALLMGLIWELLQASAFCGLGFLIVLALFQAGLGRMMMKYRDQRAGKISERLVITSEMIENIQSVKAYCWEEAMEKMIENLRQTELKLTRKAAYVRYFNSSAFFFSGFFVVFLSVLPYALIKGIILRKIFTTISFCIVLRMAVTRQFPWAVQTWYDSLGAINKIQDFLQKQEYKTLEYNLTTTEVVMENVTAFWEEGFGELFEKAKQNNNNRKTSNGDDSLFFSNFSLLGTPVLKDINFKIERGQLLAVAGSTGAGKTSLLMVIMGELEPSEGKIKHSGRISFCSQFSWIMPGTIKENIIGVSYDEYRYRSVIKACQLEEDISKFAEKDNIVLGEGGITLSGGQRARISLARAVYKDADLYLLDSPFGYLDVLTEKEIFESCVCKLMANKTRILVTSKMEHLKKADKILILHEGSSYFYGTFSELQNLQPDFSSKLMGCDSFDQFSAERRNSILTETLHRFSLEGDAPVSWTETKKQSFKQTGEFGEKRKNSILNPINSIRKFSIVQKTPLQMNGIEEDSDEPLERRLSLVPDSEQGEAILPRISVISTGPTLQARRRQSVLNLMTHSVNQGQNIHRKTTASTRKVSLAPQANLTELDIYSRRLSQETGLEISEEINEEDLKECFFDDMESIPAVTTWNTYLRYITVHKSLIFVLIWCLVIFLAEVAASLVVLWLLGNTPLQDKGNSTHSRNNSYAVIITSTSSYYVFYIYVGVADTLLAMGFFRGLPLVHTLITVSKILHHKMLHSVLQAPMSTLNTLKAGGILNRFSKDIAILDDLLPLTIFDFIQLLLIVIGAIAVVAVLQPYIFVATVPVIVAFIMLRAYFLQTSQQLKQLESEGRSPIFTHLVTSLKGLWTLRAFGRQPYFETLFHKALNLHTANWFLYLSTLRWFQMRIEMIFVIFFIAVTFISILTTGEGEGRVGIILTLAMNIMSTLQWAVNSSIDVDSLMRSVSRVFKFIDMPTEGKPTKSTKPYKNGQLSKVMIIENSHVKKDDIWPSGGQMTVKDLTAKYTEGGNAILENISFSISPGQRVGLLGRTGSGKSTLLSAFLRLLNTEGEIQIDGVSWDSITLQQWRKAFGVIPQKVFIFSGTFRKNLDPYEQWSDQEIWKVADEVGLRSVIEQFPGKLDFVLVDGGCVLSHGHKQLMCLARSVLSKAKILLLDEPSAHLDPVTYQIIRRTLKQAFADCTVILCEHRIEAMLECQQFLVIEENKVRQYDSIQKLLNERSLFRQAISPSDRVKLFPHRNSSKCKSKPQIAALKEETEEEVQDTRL

Row | SMILES | Ent. A Max Activity (CFTR [1]) | EC50 (CFTR [1]) | Ent. B Max Activity (CFTR [2]) | EC50 (CFTR [2])
1 | CC(C)C[C@@H]1COc2nc(nc(-c3ccccc3C(C)C)c2C(F)(F)F)NS(=O)(=O)c2cccc(c2)C(=O)N1 [Compound 164, (11R)-11-Isobutyl-6-(2-isopropylphenyl)-2,2-dioxo-7-(trifluoromethyl)-9-oxa-2λ^6-thia-3,5,12,19-tetrazatricyclo[12.3.1.14,8]nonadeca-1(18),4,6,8(19),14,16-hexaen-13-one] | +++ (+++ is >60%) | < 1000 nM | +++ (+++ is >60%) | < 1000 nM
2 | Cc1ncccc1-c1nc2nc(c1C(C)(C)C)OC1CN(Cc3ccccc31)C(=O)c1cccc(c1)S(=O)(=O)N2 (stereo not shown) [Compound 45] | + (+ is <30%) |  |  | 
3 | Cc1cccc(C)c1-c1nc2nc(c1OC(C)C)OC[C@@H](CC(C)C)N(C1CC3(CCN(C(=O)OC(C)(C)C)CC3)C1)C(=O)c1cccc(c1)S(=O)(=O)N2 [Compound 177] | +++ (+++ is >60%) | < 1000 nM | +++ (+++ is >60%) | < 1000 nM
4 | CCc1c2nc(nc1-c1cccnc1C)NS(=O)(=O)c1cccc(c1)NC(=O)c1cccc(c1)O2 [Compound 7, 4-Ethyl-5-(2-methylpyridin-3-yl)-2-oxa-9λ^6-thia-6,8,15,23-tetraazatetracyclo[15.3.1.13,7.110,14]tricosa-1(21),3,5,7(23),10(22),11,13,17,19-nonaene-9,9,16-trione] | + (+ is <30%) |  |  | 
5 | CCc1c2nc(nc1-c1c(C)cccc1C)NS(=O)(=O)c1cccc(c1)C(=O)N[C@H](CC(C)C)CO2 [Compound 190] | +++ (+++ is >60%) | < 1000 nM | +++ (+++ is >60%) | < 1000 nM
6 | CCc1c2nc(nc1-c1c(C)cccc1C)NS(=O)(=O)c1cccc(c1)C(=O)N(C1CC3(CCN(C)CC3)C1)[C@H](CC(C)C)CO2 [Compound 159, (11R)-6-(2,6-Dimethylphenyl)-7-ethyl-11-isobutyl-12-(7-methyl-7-azaspiro[3.5]nonan-2-yl)-2,2-dioxo-9-oxa-2λ^6-thia-3,5,12,19-tetrazatricyclo[12.3.1.14,8]nonadeca-1(17),4(19),5,7,14(18),15-hexaen-13-one] | +++ (+++ is >60%) | < 1000 nM | +++ (+++ is >60%) | < 1000 nM
7 | CCc1c2nc(nc1-c1c(C)cccc1C)NS(=O)(=O)c1cccc(c1)C(=O)N(C1CC3(CCN(C(=O)OC(C)(C)C)CC3)C1)[C@H](CC(C)C)CO2 [Compound 158, tert-butyl 2-[(11R)-6-(2,6-dimethylphenyl)-7-ethyl-11-isobutyl-2,2,13-trioxo-9-oxa-2λ^6-thia-3,5,12,19-tetrazatricyclo[12.3.1.14,8]nonadeca-1(17),4(19),5,7,14(18),15-hexaen-12-yl]-7-azaspiro[3.5]nonane-7-carboxylate] | +++ (+++ is >60%) | < 1000 nM | +++ (+++ is >60%) | < 1000 nM
8 | CCc1c2nc(nc1-c1cccnc1OC)NS(=O)(=O)c1cccc(c1)NC(=O)c1cccc(c1)O2 [Compound 20] | + (+ is <30%) |  |  | 
9 | Cc1ncccc1-c1nc2nc(c1C(F)(F)F)OC1CN(Cc3ccccc31)C(=O)c1cccc(c1)S(=O)(=O)N2 (stereo not shown) [Compound 40, 12-(2-Methyl-3-pyridyl)-8,8-dioxo-13-(trifluoromethyl)-15-oxa-8λ^6-thia-1,9,11,25-tetrazapentacyclo[14.7.1.13,7.110,14.017,22]hexacosa-3,5,7(26),10(25),11,13,17(22),18,20-nonaen-2-one] | + (+ is <30%) |  |  | 
10 | CCc1c2nc(nc1-c1c(C)cccc1C)NS(=O)(=O)c1cccc(c1)C(=O)NCC(c1ccc(C(C)(C)C)cc1)O2 (stereo not shown) [Compound 178] | +++ (+++ is >60%) | < 1000 nM |  | 
11 | CC(C)(C)c1c2nc(nc1-c1ccccc1)NS(=O)(=O)c1cccc(c1)C(=O)N1Cc3ccccc3C(C1)O2 (stereo not shown) [Compound 46] | + (+ is <30%) |  |  | 
12 | Cc1ccccc1-c1nc2nc(c1C(F)(F)F)OC1CN(Cc3ccccc31)C(=O)c1cccc(c1)S(=O)(=O)N2 (stereo not shown) [Compound 43] | +++ (+++ is >60%) | < 1000 nM |  | 
13 | CC(C)Oc1cccc(-c2nc3nc(c2C(C)(C)C)OC2CN(Cc4ccccc42)C(=O)c2cccc(c2)S(=O)(=O)N3)c1 (stereo not shown) [Compound 44] | + (+ is <30%) |  |  | 
14 | CCc1c2nc(nc1-c1c(C)cccc1OC)NS(=O)(=O)c1cccc(c1)NC(=O)c1cccc(c1)O2 [Compound 6, 4-Ethyl-5-(2-methoxy-6-methylphenyl)-2-oxa-9λ^6-thia-6,8,15,23-tetraazatetracyclo[15.3.1.13,7.110,14]tricosa-1(21),3,5,7(23),10(22),11,13,17,19-nonaene-9,9,16-trione] | ++ (++ is 30-60%) | 1000 to 3000 nM |  | 
15 | Cc1ccccc1-c1nc2nc(c1C(C)(C)C)OC1CN(Cc3ccccc31)C(=O)c1cccc(c1)S(=O)(=O)N2 (stereo not shown) [Compound 39, 13-tert-Butyl-12-(o-tolyl)-8,8-dioxo-15-oxa-8λ^6-thia-1,9,11,25-tetrazapentacyclo[14.7.1.13,7.110,14.017,22]hexacosa-3,5,7(26),10(25),11,13,17(22),18,20-nonaen-2-one] | ++ (++ is 30-60%) | < 1000 nM |  | 
16 | CCc1c2nc(nc1-c1cccc(OCC(C)C)c1)NS(=O)(=O)c1cccc(c1)NC(=O)c1cccc(c1)O2 [Compound 27] | + (+ is <30%) | < 1000 nM |  | 
17 | CCc1c2nc(nc1-c1c(C)ccc(OCCC(C)C)c1C)NS(=O)(=O)c1cccc(c1)NC(=O)c1cccc(c1)O2 [Compound 9] | ++ (++ is 30-60%) | < 1000 nM |  | 
18 | CCc1c2nc(nc1-c1ccccc1)NS(=O)(=O)c1cccc(c1)NC(=O)c1cccc(c1)O2 [Compound 30] | + (+ is <30%) |  |  | 
19 | CC(C)Oc1cccc(-c2nc3nc(c2C(F)(F)F)OC2CN(Cc4ccccc42)C(=O)c2cccc(c2)S(=O)(=O)N3)c1 (stereo not shown) [Compound 42] | + (+ is <30%) | < 1000 nM |  | 
20 | CC(C)CCc1ccccc1-c1nc2nc(c1C(F)(F)F)OC1CN(Cc3ccccc31)C(=O)c1cccc(c1)S(=O)(=O)N2 (stereo not shown) [Compound 41] | +++ (+++ is >60%) | < 1000 nM |  | 
21 | CCOc1ccccc1-c1nc2nc(c1CC)Oc1cccc(c1)C(=O)Nc1cccc(c1)S(=O)(=O)N2 [Compound 24] | + (+ is <30%) | 1000 to 3000 nM |  | 
22 | CCc1c2nc(nc1-c1ccccc1OC)NS(=O)(=O)c1cccc(c1)NC(=O)c1cccc(c1)O2 [Compound 23] | ++ (++ is 30-60%) | 3000 to 30000 nM |  | 
23 | CCc1c2nc(nc1-c1cccc(OC(C)C)c1)NS(=O)(=O)c1cccc(c1)NC(=O)c1cccc(c1)O2 [Compound 28] | + (+ is <30%) | 1000 to 3000 nM |  | 
24 | CCc1c2nc(nc1-c1cnccc1C)NS(=O)(=O)c1cccc(c1)NC(=O)c1cccc(c1)O2 [Compound 21] | + (+ is <30%) |  |  | 
25 | CCc1c2nc(nc1-c1ccncc1C)NS(=O)(=O)c1cccc(c1)NC(=O)c1cccc(c1)O2 [Compound 22] | + (+ is <30%) |  |  | 
26 | Cc1cccc(C)c1-c1nc2nc(c1OC(C)C)OC[C@@H](CC(C)C)N(C1CC3(CCN(C)CC3)C1)C(=O)c1cccc(c1)S(=O)(=O)N2 [Compound 176] | +++ (+++ is >60%) | < 1000 nM | +++ (+++ is >60%) | < 1000 nM
